Experiment [1] deals with Dickeya dadantii 3937 (Ech3937). Kind of experiment: Bacterial growth in MM supplemented with compound. It counts as cell-based. To be noted: compound added into the MM. The text has this: (§1) Phenolic compounds constitute an important class of organic substances produced by plants. The phenolic compound SA is a signaling molecule that plays a role in host defenses. OCA and TCA are the biosynthetic precursors of SA and are also reported to induce the expression of defense-related genes in plants. OCA, TCA, and SA were examined to elucidate their effects on the expression of T3SS genes. The expression of the T3SS gene hrpN was examined in MM and MM supplemented with OCA, TCA, and SA, at concentrations of 0.05, 0.1, and 0.2 mM, respectively. FIGS. 2A and 2B show the promoter activities of hrpN in Dickeya dadantii 3937 (Ech3937) grown in MM and MM supplemented with 0.05, 0.1, and 0.2 mM OCA, TCA, and SA at 12 h (FIG. 2A) and 24 h (FIG. 2B) post-inoculation. GFP intensity was determined on gated populations of bacterial cells by flow cytometry and analyzed with the Cell Quest software (BD Biosciences, San Jose, Calif.). The growth of Ech3937 in MM supplemented with different concentrations of OCA, TCA and SA was recorded. Compared with MM alone, the average GFP fluorescence intensity of bacterial cells of Ech3937 (phrpN) was increased approximately 4-fold when 0.05 mM of OCA and TCA were added to the medium (FIGS. 2A, 2B).
The expression of the T3SS gene hrpA was further examined in MM and MM supplemented with PCA at concentrations of 0.001, 0.005, 0.01, 0.05 and 0.1 mM respectively. FIGS. 16A and 16B show the promoter activities of hrpA in Dickeya dadantii 3937 (Ech3937) grown in minimum medium (MM) and MM supplemented with different amount of p-coumaric acid (PCA) at 12 h (FIG. 16A) and 24 h (FIG. 16B) post-inoculation. GFP intensity was determined on gated populations of bacterial cells by flow cytometry and analyzed with the Cell Quest software (BD Biosciences, San Jose, Calif.). The growth of Ech3937 in MM supplemented with different concentrations of PCA was recorded. Compared with MM alone, the average GFP fluorescence intensity of bacterial cells of Ech3937 (phrpA) was reduced more than 4-fold when 0.05 and 0.1 mM of PCA were added to the medium (FIGS. 16A, 16B).

Experiment [2] has as its system pPROBE-AT vector without promoter insert. Put plainly: pPROBE-AT vector control, flow cytometry. It counts as cell-based, Dickeya dadantii 3937. Particulars: Ech3937 (pPROBE-AT), MM + 0.1 mM compound. How it is done:
(§2) FACS analysis of promoter activity of dspE, hrpA, hrpL, hrpN, and hrpS was carried out as described (Peng et al., 2006). Briefly, the wild-type Ech3937 and the mutant strains carrying the promoter reporter plasmid were grown on LB broth at 28° C. overnight and transferred to appropriate media. For FACS analysis, samples were collected by centrifugation, washed with 1× phosphate buffer saline (PBS) at 13,000 rpm for 1 min, and re-suspended in 1×PBS to ca 10^6 CFU/ml prior to being run in a FACS Calibur flow cytometer (BD Biosciences, CA). Three replicates were performed for each treatment.
In general terms: A flow cytometer gives signals particle by particle.

For another experiment, the system named is hrpL promoter. Put plainly: GFP reporter plasmid phrpL, flow cytometry of hrpL promoter activity. Particulars: Ech3937 (phrpL), MM + 0.1 mM compound, 12 h. It counts as cell-based, Dickeya dadantii 3937. How it is done:
as §2

Another experiment relates to hrpA promoter (T3SS). Put plainly: hrpA promoter-probe phrpA in Erwinia amylovora 273, flow cytometry. It counts as cell-based. Particulars: Ea273 (phrpA), HIM + 100 μM compound. In a few lines: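 Erwinia amylovora 273 carrying an hrpA promoter–GFP fusion (pPROBE-NT) was grown in hrp-inducing medium with 100 μM compound or DMSO. Promoter activity read as GFP intensity by flow cytometry at 6 h and 9 h.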

Another experiment relates to hrpS promoter. Kind of experiment: GFP reporter plasmid phrpS, flow cytometry of hrpS promoter activity. Particulars: MM + 0.1 mM compound, 12 h. It counts as cell-based, Dickeya dadantii 3937. In a few lines:
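Wild-type Ech3937 and mutant strains carrying the phrpS GFP reporter were grown overnight in LB at 28 °C, then transferred to appropriate media with compounds. Cells were washed and resuspended in PBS to ca 10^6 CFU/ml for flow cytometry, three replicates per treatment.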

A further experiment deals with hrpN promoter (T3SS). Kind of experiment: GFP reporter plasmid phrpN, flow cytometry of hrpN promoter activity. It counts as cell-based, Dickeya dadantii 3937. Particulars: for GFP Mean Fluorescence Intensity, hrpN promoter: MM + 0.1 mM compound. How it is done: as §2, §1
The next experiment has as its system rsmB RNA. Put plainly: qRT-PCR relative mRNA level of rsmB. To be noted: Ech3937 in MM supplemented with compound. It counts as cell-based, Dickeya dadantii 3937. How it is done:
Bacterial strains were grown in MM. Total RNA from the bacterial cells was isolated by using the TRI reagent method (Sigma, Mo.) and treated with Turbo DNA-free DNase kits (Ambion, Tex.) as described (Peng et al., 2006). An iScript cDNA Synthesis Kit (Bio-Rad, CA) was used to synthesize cDNA from 0.5 μg of treated total RNA. The Real Master Mix (Eppendorf, Westbury, N.Y.) was used for qRT-PCR reaction to quantify the cDNA level of target genes in different samples. The rplU was used as the endogenous control for data analysis. qRT-PCR data were analyzed using Relative Expression Software Tool as described (Pfaffl, M. W., Horgan, G. W., and Dempfle, L. (2002) Relative expression software tool (REST) for group-wise comparison and statistical analysis of relative expression results in real-time PCR. Nucleic Acids Res 30:e36.).
For orientation: Real-time PCR tracks product formation cycle by cycle.

Several values for one entry are separate records, joined by “and”; a condition that tells them apart may be missing. Identical values can stand only once.

`O=C(O)/C=C/c1ccccc1O` [Compound 006, Ortho-coumaric acid]: the “effect on bacterial growth of Ech3937 in MM, in words” value in experiment [1] is recorded as “No reduction of bacterial growth”. Also, the “GFP Mean Fluorescence Intensity, vector control” value in experiment [2] (6 h) came out at 2.0 ± 0; in experiment [2] (12 h), 2.0 ± 0; in experiment [2] (24 h), 1.9 ± 0. Further, the “GFP Mean Fluorescence Intensity, hrpL promoter” value in the experiment with hrpL promoter is 19 ± 0. In addition, the “Avg MFI ± SD, hrpA expression” value was determined as 443 ± 16.9 in the experiment on hrpA promoter (T3SS) (6 h) and 437.8 ± 21.1 in the experiment on hrpA promoter (T3SS) (9 h). Further, the “GFP Mean Fluorescence Intensity, hrpS promoter” value with hrpS promoter (Ech3937 (phrpS)) came to 56 ± 1; with hrpS promoter (hrpL mutant WPP96 (phrpS)), 350 ± 17. Moreover, the “hrpN expression in Ech3937 and hrpX, hrpY, hrpS mutants, in words” value with hrpN promoter (T3SS) (0.1 mM, 12 h (FIG. 5)) was “induced the expression of hrpN in Ech3937, but not in hrpX, hrpY, and hrpS mutants”. Besides, the “GFP Mean Fluorescence Intensity, hrpN promoter” value with hrpN promoter (T3SS) (Ech3937 (phrpN), 6 h) was 31 ± 3; in the experiment with hrpN promoter (T3SS) (Ech3937 (phrpN), 12 h, listed as OCA), 94 ± 3 and 91 ± 8; with hrpN promoter (T3SS) (Ech3937 (phrpN), 24 h), 78 ± 8; in the experiment on hrpN promoter (T3SS) (hrpL mutant WPP96 (phrpN), 12 h), 3.3 ± 0.1; in the experiment with hrpN promoter (T3SS) (iaaM mutant Ech138 (phrpN), 6 h), 9.1 ± 1.6; with hrpN promoter (T3SS) (iaaM mutant Ech138 (phrpN), 12 h), 33 ± 5. In addition, the “GFP Mean Fluorescence Intensity, hrpN promoter” value with hrpN promoter (T3SS) (iaaM mutant Ech138 (phrpN), 24 h) is 39 ± 5. In the experiment with rsmB RNA, the “rsmB mRNA relative expression ratio (MM alone normalized to 1)” value worked out at 1.4.

For the origin of these results see patent US9260382B2, “Methods of reducing virulence in bacteria” (priority 2010, dated 2016).
